Results published in patent US11439640B2, “Pharmaceutical composition comprising substance inhibiting enzymatic activity of peroxiredoxin 2 as effective ingredient for treatment of colorectal cancer” (EWHA UNIVERSITY-INDUSTRY COLLABORATION FOUNDATION, priority 2017, dated 2022).
Residues, ends and D or L forms follow the SMILES beside them. *: point of attachment. Cbz = O=C(OCc1ccccc1)*

Columns and labels:
[1] = target: recombinant TNKS1 PARP domain (amino acids of 1023-1327) (Homo sapiens, UniProt O95271); settings: incubation with H2O2; FIG. 48
Description: (§1) Immunocomplex-bound beads were incubated at 25° C. for 30 minutes in 40 μL of assay buffer (50 mM Tris-HCl, pH 8.0, 4 mM MgCl2) containing 4 μCi of γ-^32[P]-NAD^+. The reaction was stopped by adding 2×SDS sample buffer. The sample was boiled and separated using an SDS denaturing gel.
(§2) The gel was dried under vacuum and radiographed on an imaging plate. Radioactivity recorded on the plate was read and quantified by Fujifilm Bio-imaging Analyzer System (BAS)-3000.

TNKS = settings: FIG. 40
Description: as §1, §2

GST-TNKS1 PARP protein = GST-TNKS1 PARP protein (Homo sapiens, UniProt O95271); settings: 500 μM H2O2 for 30 minutes; FIG. 49
Description: Zinc ions were observed using 4-(2-pyridylazo) resorcinol (PAR) in an aqueous solution.
The GST-TANK1 PARP protein was incubated with 500 μM H2O2 for 30 minutes in 200 μL of 40 mM HEPES (pH 7.0) reaction buffer containing 0.1 mM PAR. The formation of a PAR2-Zn^2+ complex was monitored at 500 nm with a UV/VIS spectrophotometer (Agilent).
The total zinc content of the purified GST-TNKS1 PARP protein used in the assay was determined by adding 0.5 mM p-chloromercuribenzoic acid to a reaction mixture.

recombinant human PrxI = target: T1, recombinant human PrxI (Homo sapiens, UniProt Q06830); test: Peroxiredoxin (peroxidase) assay, PrxI; assay type: biochemical
T1 sequence (Q06830 1-199): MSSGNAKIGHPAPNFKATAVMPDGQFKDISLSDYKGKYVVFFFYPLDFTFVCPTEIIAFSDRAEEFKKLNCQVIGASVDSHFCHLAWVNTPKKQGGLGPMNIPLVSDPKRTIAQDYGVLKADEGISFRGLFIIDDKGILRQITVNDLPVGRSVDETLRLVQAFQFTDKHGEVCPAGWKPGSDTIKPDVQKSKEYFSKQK
Description: The peroxidase assay was performed in a reaction mixture (200 μL) containing 250 μM NADPH, 1.5 μM yeast TR, 3 μM yeast Trx, a recombinant human Prx (PrxI (4.6 μM) and PrxII (16.4 μM)), and […] (pH 7.0) containing 1 mM EDTA, and […] H2O2.
The mixture (minus H2O2) was preincubated for 5 minutes in the presence or absence of Compounds 1 to 6 (100 μM), and then, the reaction was initiated by adding H2O2. NADPH oxidation was monitored at 30° C. for 5 minutes as the absorbance decreased near 340 nm using an Agilent UV8453 spectrophotometer (Hewlett Packard. USA). The initial reaction rate was calculated using the linear portion of the curve and indicated as the amount of oxidized NADPH per minute.

HT29 cells = test: Colony forming assay in HT29 cells; assay type: cell-based, human; settings: APC-mutant CRC cells
RKO cells = test: Colony forming assay in RKO cells; assay type: cell-based, human; settings: APC wild-type CRC cells
SW480 cells = test: Colony forming assay in SW480 cells; assay type: cell-based, human; settings: APC-mutant CRC cells
[2] = tested on: tumor xenograft derived from HT29; test: HT29 tumor xenograft in mice (luminescence imaging, tumor weight); assay type: in vivo, mouse; settings: intraperitoneal, 286 μM in DMSO, from 6 days after cell injection, every 3 days; FIGS. 65 and 66
Description: In the case of a tumor xenograft model, the mice were anesthetized by the inhalation of isoflurane gas (N2O:O2/70%:30%) and subcutaneously injected with HT29-luc2 cells (2.5×10^5 cells) suspended in 200 μL of PBS. Compound 1 to Compound 6 (286 μM in DMSO) were intraperitoneal administered starting from 6 days after the cell injection and repeated every 3 days.
Bioluminescent imaging was performed with IVIS Lumina Series III (Perkin Elmer). For each image photographing session, luciferin suspended in PBS (150 mg of luciferin/kg body weight) was administered intraperitoneally according to the manufacturer's protocol.
Up to four animals were maintained in the integral anesthetic manifold equipment and they were imaged 10 minutes after luciferin injection. The IVIS imaging system collects the photographic images of mice and quantitative bioluminescent signals therefrom and then allows them to overlap with each another.

Axin1 = Axin1 immunoprecipitation, PARsylation and ubiquitination blot; assay type: cell-based, human; settings: cells of the control, HT29 and SW480
Description: (§3) For immunoprecipitation, purified cell lysates (0.5-1 mg of proteins) were removed in advance with 30 μL of protein-A/G Sepharose 4 Fast Flow beads (Amersham Biosciences) for one hour.
(§4) Supernatants (cultures floating on the surface) were incubated with 3 μg of an appropriate antibody overnight, and then, precipitated by mixing with 30 μL of protein-A/G beads at 4° C. for three hours.
(§5) Then, the beads were washed three times with 1 mL of lysis buffer, followed by in vitro PARP analysis or immunoblotting.

[3] = tested on: Axin1-related destruction complex; test: Co-immunoprecipitation of Axin1-related destruction complex; assay type: cell-based, human; settings: SW480 cells; FIG. 34
Description: as §3, §4, §5

Chain of GST-TNKS1 PARP protein (O95271 1023-1327): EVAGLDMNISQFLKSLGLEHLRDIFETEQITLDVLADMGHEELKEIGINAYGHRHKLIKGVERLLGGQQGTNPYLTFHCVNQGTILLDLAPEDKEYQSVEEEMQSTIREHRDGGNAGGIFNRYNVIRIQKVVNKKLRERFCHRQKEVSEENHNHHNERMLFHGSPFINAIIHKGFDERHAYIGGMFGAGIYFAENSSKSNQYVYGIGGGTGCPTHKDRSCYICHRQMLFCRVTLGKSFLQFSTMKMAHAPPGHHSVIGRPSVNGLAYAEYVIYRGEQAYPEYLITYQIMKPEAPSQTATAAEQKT
Chain of recombinant TNKS1 PARP domain (amino acids of 1023-1327) (O95271 1023-1327): as above

With `OO` [Compound H2O2, hydrogen peroxide] the “polyADP-ribosylation activity of TNKS1 PARP domain” value [1] was “fully inactivated”, the “TNKS activity (PARP) in HT29 cells” value (TNKS; HT29 cells) was “inhibited” and the “TNKS activity (PARP) in SW480 cells” value (TNKS; SW480 cells) was “inhibited”. For the same compound, the “TNKS1 PARP proteins that lost zinc ions” value (GST-TNKS1 PARP protein) was no less than 90%.
With `[O-][n+]1c(CBr)c(CBr)[n+]([O-])c2ccccc21` [Compound 6, 2,3-bis(bromomethyl)quinoxaline 1,4-dioxide] the “effect on initial rate of PrxI activity (in words)” value (recombinant human PrxI; 100 μM compound) was “not affected”, the inhibition at 100 µM (recombinant human PrxI; 100 μM compound, FIG. 63) was roughly 50% and the “initial rate of PrxI activity” value (recombinant human PrxI; group treated with Conoidin A, 100 μM, control 263.7±45.4) was 241.7 ± 21 nmol/min. For the same compound, the “inhibition of proliferation (colony formation) of HT29 cells” value (HT29 cells) was “sufficiently inhibited”, the “inhibition of proliferation (colony formation) of RKO cells” value (RKO cells) was “not” and the “inhibition of proliferation (colony formation) of SW480 cells” value (SW480 cells) was “sufficiently inhibited”. The “tumor growth compared to the control” value [2] was “significantly delayed”.
In the case of `CC(C)C[C@@H](C=O)NC(=O)[C@H](CC(C)C)NC(=O)[C@H](CC(C)C)NC(=O)OCc1ccccc1` [MG132] (Cbz-Leu-Leu-Leu-aldehyde), the “PARsylated and ubiquitinated Axin1” value (Axin1) is reported as “induces the accumulation”.
With `O=C1Nc2cc(Br)ccc2/C1=C1/Nc2ccccc2/C1=N\O` [BIO] the “phospho-β-catenin in the Axin1-related destruction complex” value [3] was “disappeared”.
